# Tested on: mice injected i.c.v. with Aβ25-35 peptide
# Assay: Passive avoidance test after i.c.v. Aβ25-35
# Assay type: in vivo
# Settings: Acamprosate 0.2 mg/kg; Baclofen 3 mg/kg
# Method: Male Swiss mice are used throughout the study. Animals are housed in plastic cages, with free access to laboratory chow and water, except during behavioural experiments, and kept in a regulated environment, under a 12 h light/dark cycle (light on at 8:00 a.m.). Experiments are carried out in a soundproof and air-regulated experimental room, to which mice have been habituated at least 30 min before each experiment.
# Drug(s) is/are daily administered by gavage (per os). The β25-35 peptide and scrambled β 25-35 peptide (control) have been dissolved in sterile bidistilled water, and stored at −20° C. until use. The β-amyloid peptides are then administered intracerebroventricularly (i.c.v.). […]
# On day 7 and 8, the contextual long-term memory of the animals is assessed using the […] passive avoidance procedure.
# The apparatus is a two-compartment (15×20×15 cm high) box with one illuminated with white polyvinylchloride walls and the other darkened with black polyvinylchloride walls and a grid floor. […] The step-through latency, that is, the latency spent to enter the darkened compartment, and the number of vocalizations is recorded. […] After 5 s the doors is raised, the step-through latency and the escape latency, i.e. the time spent to return into the white compartment, are recorded up to 300 s.
structure (smiles),measurement,value
NCC(CC(=O)O)c1ccc(Cl)cc1 (centres unmarked) [Baclofen],"effect on step-through latency, drugs alone compared with the combination (in words)",lower effect
CC(=O)NCCCS(=O)(=O)O [Acamprosate],"effect on step-through latency, drugs alone compared with the combination (in words)",lower effect
